Laboratory results published in ChEMBL document CHEMBL5036314, “Structure-Guided Design of the First Noncovalent Small-Molecule Inhibitor of CRM1” (J Med Chem, 2021).
Active and inactive are the calls of the source. The rule behind the calls is not given here.

Columns and labels:
HeLa = assay: Anti-cancer activity against human HeLa cells assessed as cell viability at 20 uM incubated for 2 hrs by EdU incorporation based assay; format: functional
[1] = molecular target: Exportin-1 (Saccharomyces cerevisiae) (UniProt P30822); assay: Inhibition of GST-NES MVM binding to yeast CRM1 at 20 uM by pull down assay
Saccharomyces cerevisiae = assay: Inhibition of NES binding to yeast CRM1-T539 mutant in absence of RanGTP at 20 uM by pull down assay

Row | Compound | inhibition [1] | inhibition (Saccharomyces cerevisiae) | Activity (HeLa)
1 | FC(F)(F)c1cc(SCc2ccnc(Cl)c2)cc(C(F)(F)F)c1 | inactive | – | inactive
2 | [O-][S+](Cc1ccnc(Cl)c1)c1cc(C(F)(F)F)cc(C(F)(F)F)c1 (stereo not drawn) | inactive | – | inactive
3 | [O-][S+](Cc1cc(Br)no1)c1cc(C(F)(F)F)cc(C(F)(F)F)c1 (stereo not drawn) | inactive | – | inactive
4 | FC(F)(F)c1cc(S/C=C/CBr)cc(C(F)(F)F)c1 | Active | Active | inactive

Further lines, with some results ahead:

Row | inhibition [1] | inhibition (Saccharomyces cerevisiae) | Compound | Activity (HeLa)
5 | inactive | – | CC(C)CCNc1cc(C[S+]([O-])c2cc(C(F)(F)F)cc(C(F)(F)F)c2)ccn1 (stereo not drawn) | inactive
6 | inactive | – | CC(C)CCNc1cc(C[S+]([O-])c2cc(C(F)(F)F)cc(C(F)(F)F)c2)on1 (stereo not drawn) | inactive
